From ChEMBL document CHEMBL4411296, “Design and development of Isatin-triazole hydrazones as potential inhibitors of microtubule affinity-regulating kinase 4 for the therapeutic management of cell proliferation and metastasis” (Eur J Med Chem, 2019)

Key:
Assay type in all cases: functional
[1] = tested on: CCRF-CEM; assay: Growth inhibition of human CCRF-CEM cells assessed as cell growth at 10 uM after 48 hrs by sulforhodamine B assay relative to control; details: read-out: Activity
[2] = tested on: A549; assay: Growth inhibition of human A549/ATCC cells assessed as cell growth at 10 uM after 48 hrs by sulforhodamine B assay relative to control; details: A549, 48 h, read-out: Activity
[3] = tested on: UO-31; assay: Growth inhibition of human UO31 cells assessed as cell growth at 10 uM after 48 hrs by sulforhodamine B assay relative to control; details: UO-31, 48 h, read-out: Activity
[4] = tested on: SF-295; assay: Growth inhibition of human SF295 cells assessed as cell growth at 10 uM after 48 hrs by sulforhodamine B assay relative to control; details: SF-295, 48 h, read-out: Activity
[5] = tested on: LOX IMVI; assay: Growth inhibition of human LOXIMVI cells assessed as cell growth at 10 uM after 48 hrs by sulforhodamine B assay relative to control; details: read-out: Activity
[6] = tested on: UACC-257; assay: Growth inhibition of human UACC257 cells assessed as cell growth at 10 uM after 48 hrs by sulforhodamine B assay relative to control; details: UACC-257, 48 h, read-out: Activity
[7] = tested on: ACHN; assay: Growth inhibition of human ACHN cells assessed as cell growth at 10 uM after 48 hrs by sulforhodamine B assay relative to control; details: read-out: Activity
[8] = tested on: SK-MEL-5; assay: Growth inhibition of human SK-MEL-5 cells assessed as cell growth at 10 uM after 48 hrs by sulforhodamine B assay relative to control; details: SK-MEL-5, 48 h, read-out: Activity
[9] = tested on: SF-268; assay: Growth inhibition of human SF268 cells assessed as cell growth at 10 uM after 48 hrs by sulforhodamine B assay relative to control; details: SF-268, 48 h, read-out: Activity
[10] = tested on: M14; assay: Growth inhibition of human M14 cells assessed as cell growth at 10 uM after 48 hrs by sulforhodamine B assay relative to control; details: M14, 48 h, read-out: Activity
[11] = tested on: SW-620; assay: Growth inhibition of human SW620 cells assessed as cell growth at 10 uM after 48 hrs by sulforhodamine B assay relative to control; details: SW-620, 48 h, read-out: Activity
[12] = tested on: SR; assay: Growth inhibition of human SR cells assessed as cell growth at 10 uM after 48 hrs by sulforhodamine B assay relative to control; details: read-out: Activity
[13] = tested on: Hs-578T; assay: Growth inhibition of human Hs 578T cells assessed as cell growth at 10 uM after 48 hrs by sulforhodamine B assay relative to control; details: read-out: Activity
[14] = tested on: HCT-15; assay: Growth inhibition of human HCT15 cells assessed as cell growth at 10 uM after 48 hrs by sulforhodamine B assay relative to control; details: HCT-15, 48 h, read-out: Activity
[15] = tested on: TK-10; assay: Growth inhibition of human TK10 cells assessed as cell growth at 10 uM after 48 hrs by sulforhodamine B assay relative to control; details: TK-10, 48 h, read-out: Activity
[16] = tested on: K562; assay: Growth inhibition of human K562 cells assessed as cell growth at 10 uM after 48 hrs by sulforhodamine B assay relative to control; details: K562, 48 h, read-out: Activity
[17] = tested on: NCI/ADR-RES; assay: Growth inhibition of human NCI/ADR-RES cells assessed as cell growth at 10 uM after 48 hrs by sulforhodamine B assay relative to control; details: read-out: Activity
[18] = tested on: A498; assay: Growth inhibition of human A498 cells assessed as cell growth at 10 uM after 48 hrs by sulforhodamine B assay relative to control; details: A498, 48 h, read-out: Activity
[19] = tested on: SNB-75; assay: Growth inhibition of human SNB75 cells assessed as cell growth at 10 uM after 48 hrs by sulforhodamine B assay relative to control; details: SNB-75, 48 h, read-out: Activity
[20] = tested on: SK-OV-3; assay: Growth inhibition of human SKOV3 cells assessed as cell growth at 10 uM after 48 hrs by sulforhodamine B assay relative to control; details: SK-OV-3, 48 h, read-out: Activity
[21] = tested on: HT-29; assay: Growth inhibition of human HT-29 cells assessed as cell growth at 10 uM after 48 hrs by sulforhodamine B assay relative to control; details: HT-29, 48 h, read-out: Activity
[22] = tested on: BT-549; assay: Growth inhibition of human BT549 cells assessed as cell growth at 10 uM after 48 hrs by sulforhodamine B assay relative to control; details: BT-549, 48 h, read-out: Activity
[23] = tested on: MDA-MB-231; assay: Growth inhibition of human MDA-MB-231 cells assessed as cell growth at 10 uM after 48 hrs by sulforhodamine B assay relative to control; details: MDA-MB-231, 48 h, read-out: Activity
[24] = tested on: IGROV-1; assay: Growth inhibition of human IGROV1 cells assessed as cell growth at 10 uM after 48 hrs by sulforhodamine B assay relative to control; details: IGROV-1, 48 h, read-out: Activity
[25] = tested on: SK-MEL-28; assay: Growth inhibition of human SK-MEL-28 cells assessed as cell growth at 10 uM after 48 hrs by sulforhodamine B assay relative to control; details: SK-MEL-28, 48 h, read-out: Activity
[26] = tested on: KM12; assay: Growth inhibition of human KM12 cells assessed as cell growth at 10 uM after 48 hrs by sulforhodamine B assay relative to control; details: KM12, 48 h, read-out: Activity
[27] = tested on: OVCAR-8; assay: Growth inhibition of human OVCAR8 cells assessed as cell growth at 10 uM after 48 hrs by sulforhodamine B assay relative to control; details: OVCAR-8, 48 h, read-out: Activity
[28] = tested on: SN12C; assay: Growth inhibition of human SN12C cells assessed as cell growth at 10 uM after 48 hrs by sulforhodamine B assay relative to control; details: read-out: Activity
[29] = tested on: OVCAR-4; assay: Growth inhibition of human OVCAR4 cells assessed as cell growth at 10 uM after 48 hrs by sulforhodamine B assay relative to control; details: OVCAR-4, 48 h, read-out: Activity
[30] = tested on: T47D; assay: Growth inhibition of human T47D cells assessed as cell growth at 10 uM after 48 hrs by sulforhodamine B assay relative to control; details: read-out: Activity
[31] = tested on: NCI-H23; assay: Growth inhibition of human NCI-H23 cells assessed as cell growth at 10 uM after 48 hrs by sulforhodamine B assay relative to control; details: NCI-H23, 48 h, read-out: Activity
[32] = tested on: HCT-116; assay: Growth inhibition of human HCT116 cells assessed as cell growth at 10 uM after 48 hrs by sulforhodamine B assay relative to control; details: HCT-116, 48 h, read-out: Activity
[33] = tested on: EKVX; assay: Growth inhibition of human EKVX cells assessed as cell growth at 10 uM after 48 hrs by sulforhodamine B assay relative to control; details: read-out: Activity
[34] = tested on: RPMI-8226; assay: Growth inhibition of human RPMI8226 cells assessed as cell growth at 10 uM after 48 hrs by sulforhodamine B assay relative to control; details: RPMI-8226, 48 h, read-out: Activity
[35] = tested on: NCI-H322M; assay: Growth inhibition of human NCI-H322M cells assessed as cell growth at 10 uM after 48 hrs by sulforhodamine B assay relative to control; details: read-out: Activity

| Compound | growth at 10 µM [1] [%] | growth at 10 µM [2] [%] | growth at 10 µM [3] [%] | growth at 10 µM [5] [%] | growth at 10 µM [6] [%] | growth at 10 µM [7] [%] | growth at 10 µM [8] [%] | growth at 10 µM [9] [%] | growth at 10 µM [10] [%] | growth at 10 µM [11] [%] | growth at 10 µM [12] [%] | growth at 10 µM [13] [%] | growth at 10 µM [14] [%] | growth at 10 µM [15] [%] | growth at 10 µM [16] [%] | growth at 10 µM [17] [%] | growth at 10 µM [18] [%] | growth at 10 µM [19] [%] | growth at 10 µM [20] [%] | growth at 10 µM [21] [%] | further results |
| --- | --- | --- | --- | --- | --- | --- | --- | --- | --- | --- | --- | --- | --- | --- | --- | --- | --- | --- | --- | --- | --- |
| COc1ccc(Cn2cc(C(=O)N/N=C3/C(=O)Nc4ccc(Cl)cc43)nn2)cc1 | 94.7 | 103 | 90.7 | 108 | 113 | 107 | 96.7 | 98.9 | 110 | 99.7 | 80.6 | 112 | 109 | 84.8 | 91.2 | 115 | 96.6 | 115 | 119 | 93.7 | growth at 10 µM [4]: 108%; growth at 10 µM [22]: 116%; growth at 10 µM [23]: 113%; growth at 10 µM [24]: 106%; growth at 10 µM [25]: 113%; growth at 10 µM [26]: 97.7%; growth at 10 µM [27]: 105%; growth at 10 µM [28]: 101%; growth at 10 µM [29]: 100%; growth at 10 µM [30]: 101%; growth at 10 µM [31]: 104%; growth at 10 µM [32]: 107%; growth at 10 µM [33]: 106%; growth at 10 µM [34]: 109%; growth at 10 µM [35]: 104% |
| COc1ccc(Cn2cc(C(=O)N/N=C3/C(=O)Nc4ccc(F)cc43)nn2)cc1 | 95 | 94.2 | 93.2 | 102 | 91 | 110 | 103 | 103 | 111 | 103 | 102 | 111 | 103 | 102 | 97.2 | 96.7 | 83.4 | 104 | 98.9 | 91.8 | growth at 10 µM [4]: 95.4%; growth at 10 µM [22]: 116%; growth at 10 µM [23]: 106%; growth at 10 µM [24]: 101%; growth at 10 µM [25]: 116%; growth at 10 µM [26]: 95.8%; growth at 10 µM [27]: 98.7%; growth at 10 µM [28]: 94.6%; growth at 10 µM [29]: 101%; growth at 10 µM [30]: 85.9%; growth at 10 µM [31]: 99.5%; growth at 10 µM [32]: 108%; growth at 10 µM [33]: 106%; growth at 10 µM [34]: 99.1%; growth at 10 µM [35]: 102% |
| COc1ccc(Cn2cc(C(=O)N/N=C3/C(=O)Nc4c(F)cccc43)nn2)cc1 | 90.2 | 93.2 | 77 | 97.8 | 88.7 | 86.4 | 99.3 | 100 | 101 | 92.7 | 90.3 | 101 | 99.5 | 96 | 88 | 96.9 | 113 | 90.1 | 102 | 86.5 | growth at 10 µM [4]: 98%; growth at 10 µM [22]: 105%; growth at 10 µM [23]: 96.3%; growth at 10 µM [24]: 91.1%; growth at 10 µM [25]: 104%; growth at 10 µM [26]: 101%; growth at 10 µM [27]: 85.5%; growth at 10 µM [28]: 94.8%; growth at 10 µM [29]: 61.5%; growth at 10 µM [30]: 66.8%; growth at 10 µM [31]: 90.1%; growth at 10 µM [32]: 63.7%; growth at 10 µM [33]: 107%; growth at 10 µM [34]: 89.7%; growth at 10 µM [35]: 97.5% |
| COc1ccc(Cn2cc(C(=O)N/N=C3/C(=O)Nc4ccc(F)c(Cl)c43)nn2)cc1 | 109 | 98 | 92.4 | 100 | 100 | 111 | 99.9 | 99.4 | 107 | 106 | 99.5 | 112 | 113 | 101 | 90.8 | 104 | 91.3 | 103 | 116 | 98 | growth at 10 µM [22]: 117%; growth at 10 µM [23]: 109%; growth at 10 µM [24]: 110%; growth at 10 µM [25]: 115%; growth at 10 µM [26]: 101%; growth at 10 µM [27]: 99.2%; growth at 10 µM [28]: 103%; growth at 10 µM [29]: 104%; growth at 10 µM [30]: 110%; growth at 10 µM [31]: 98%; growth at 10 µM [32]: 109%; growth at 10 µM [33]: 108%; growth at 10 µM [34]: 116%; growth at 10 µM [35]: 105% |
